{
  "source": "paper PMC7756445",
  "about": "“A Novel Prodrug of a nNOS Inhibitor with Improved Pharmacokinetic Potential” (Chemmedchem, 2020)",
  "key": {"[1]": {"target": "T1, human iNOS (Homo sapiens, UniProt P35228)", "T1 construct": "purchased Enzo Life Sciences, Inc. (New York, USA)", "assay": "NOS inhibition, L-Arg to L-Cit conversion by HPLC with fluorescence detection", "assay_type": "biochemical", "settings": "at 1 μM", "procedure": "(§1) The amidoxime 2 was evaluated for its in vitro NOS inhibitory activity, by measuring the conversion of L‐Arg to L‐Cit, using a validated HPLC method with fluorescence detection, as previously reported.[ ^39 , ^40 , ^41 ] The human nNOS and iNOS inhibition percent were calculated at 1 μM, while bovine eNOS inhibition was evaluated at 10 μM in order to have an assessment of compound selectivity toward eNOS. Considering the highly conserved primary sequence (>90 %) between the human and bovine eNOS, this latter extremely resembles the human isozyme. In particular, there is only one amino acid variation in a hydrophobic pocket that is on the outside of the heme active site. Therefore the different source of eNOS is usually well accepted and should not affect the inhibitor evaluation. ^[42]\n(§2) Recombinant human iNOS and nNOS, were purchased from Enzo Life Sciences, Inc. (New York, USA), while bovine recombinant eNOS was purchased from Cayman Chemicals (Ann Arbor, Michigan, USA). HPLC analyses were performed using a Waters system composed of a P600 model pump, a 2475 multi‐fluorescence detector, and a 7725i model sample injector (Rheodyne, Cotati, CA, USA) equipped with a 5 μL loop. The column was a XTerra MS C8 (250×4.6 mm i.d., […]; Waters). A column thermostat oven module Igloo‐Cil (Cil Cluzeau Info Labo, France) was used. Chromatograms were recorded on a Fujitsu Siemens Esprimo computer and data were processed by the Empower Pro software (Waters). The appropriate mobile phase was prepared daily, filtered through a 0.45 μm WTP membrane (Whatman, Maidstone, UK), sonicated and degassed before use. Column temperature was kept constant at 20 °C. All assays were performed in triplicate.\n(§3) Enzymes were diluted in 2‐[4‐(2‐hydroxyethyl)piperazin‐1‐yl]ethanesulfonic acid (HEPES) buffer (pH 7.4) to obtain iNOS and nNOS 2.5 μg/mL stock solutions, and eNOS 300 μg/mL stock solution. To measure iNOS activity, 10 μL of iNOS stock solution were added to 80 μL of HEPES buffer at pH 7.4, containing 0.1 mM CaCl2, 1 mM D,L‐dithiothreitol (DTT), 0.5 mg/mL bovine serum albumin (BSA), 10 μM flavin mononucleotide (FMN), 10 μM flavin adenine dinucleotide (FAD), 30 μM tetrahydrobiopterin (BH4), 10 μg/mL calmodulin (CaM) and 10 μM L‐Arg. To measure eNOS and nNOS activities, 25 μL of enzyme stock solution were added to 75 μL of HEPES buffer pH 7.4, containing 2 mM CaCl2, 1 mM DTT, 0.5 mg/mL BSA, 10 μM FMN, 10 μM FAD, 30 μM BH4, 10 μg/mL CaM and 10 μM L‐Arg. Then, 10 μL of a 10 μM (iNOS and nNOS assay) or 100 μM (eNOS assay) solution of the test compound was added to the enzyme assay solution, followed by pre‐incubation of 15 min at 37 °C. The reaction was initiated by the addition of 10 μL of nicotinamide adenine dinucleotide phosphate (NADPH) 7.5 mM (iNOS) or 10 mM (eNOS and nNOS), carried out at 37 °C for 20 min, and stopped by adding 500 μL of ice‐cold CH3CN. The mixture was brought to dryness under vacuum and eventually stored at −20 °C, before the fluorescence derivatization. The o‐phthalaldehyde‐N‐acetylcysteine (OPA/NAC) reagent for fluorescence derivatization was prepared with the molar ratios of 1 : 3, reacting 5 mL of methanolic OPA solution and 20 mL of 0.2 M borate buffer containing 0.1 g of NAC for 90 min to final pH 9.3±0.05. The OPA/NAC solution was stored at 4 °C and saved for no longer than seven days. […] The fluorescence reaction is realized stirring 190 μL of supernatant and 60 μL of OPA/NAC solution for 5 min. […]"}, "[2]": {"target": "T2, bovine eNOS (Bos taurus, UniProt P29473)", "T2 construct": "purchased Cayman Chemicals (Ann Arbor, Michigan, USA)", "assay": "NOS inhibition, L-Arg to L-Cit conversion by HPLC with fluorescence detection", "assay_type": "biochemical", "settings": "at 10 μM", "procedure": "as §1, §2, §3"}, "[3]": {"target": "T3, human nNOS (Homo sapiens, UniProt P29475)", "T3 construct": "purchased Enzo Life Sciences, Inc. (New York, USA)", "assay": "NOS inhibition, L-Arg to L-Cit conversion by HPLC with fluorescence detection", "assay_type": "biochemical", "settings": "read-out: nNOS enzymatic inhibition", "procedure": "as §1, §2, §3"}, "[4]": {"assay": "PAMPA-GI assay", "set-up": "Papp at 2 h: dose or concentration left out as unconfirmed", "settings": "for Papp at 2 h: PAMPA", "procedure": "The relative passive transcellular diffusion of compounds, expressed as permeability coefficient (Pe), was determined with a permeability equation. ^[45] The permeabilities of 1, 2, and 1400 W were determined at pH 5.0, 6.5, and 7.4 to mimic the physiological conditions of the GI tract (Table 1). […] As the new prodrug was designed for the potential treatment of neurodegenerative diseases, an important parameter is its capability to cross the BBB.\nEach donor filtration plate well, carefully impregnated with 5 µL of this solution, was added of 150 μL of […] test compound buffer solutions (phosphate buffer for pH 7.4 and pH 6.5 and hydrochloric acid buffer for pH 1.4). Subsequently, the drug‐filled donor plate was placed onto the acceptor plate prefilled with the same buffer (300 μL) as the acceptor solution. Once replaced the plate lid, the resulting assembled donor‐acceptor plates were incubated at room temperature for 2 h. The concentration in the acceptor and donor solutions were determined by HPLC. The Pe was determined as previously reported. ^[47]"}},
  "data": [
    {"smiles": "C/C(=N\\O)NC(c1ccccc1)c1ccccc1", "note": "[Compound 2, (1E)‐N‐(diphenylmethyl)‐N′‐hydroxyethanimidamide]", "values": [
      {"measurement": "iNOS inhibition (in words)", "setting": "[1]", "value": "not able to inhibit"},
      {"measurement": "iNOS inhibition (in words)", "setting": "[1]; listed as amidoxime", "value": "inactivity"},
      {"measurement": "eNOS inhibition (in words)", "setting": "[2]", "value": "not able to inhibit"},
      {"measurement": "eNOS inhibition (in words)", "setting": "[2]; listed as amidoxime", "value": "inactivity"},
      {"measurement": "inhibition at 1 µM", "setting": "[3]", "value": 53, "unit": "%"},
      {"measurement": "Papp at 2 h", "setting": "[4]; pH 1.4", "value": 0.66, "unit": "×10⁻⁶ cm/s"},
      {"measurement": "Papp at 2 h", "setting": "[4]; pH 6.5", "value": 1.57, "unit": "×10⁻⁶ cm/s"},
      {"measurement": "Papp at 2 h", "setting": "[4]; pH 7.4", "value": 2.03, "unit": "×10⁻⁶ cm/s"},
      {"measurement": "PAMPA-GI Pe (bound stated in text)", "setting": "[4]; pH 6.5", "value": "> 1.5×10^−6"},
      {"measurement": "PAMPA-GI Pe (bound stated in text)", "setting": "[4]; pH 7.4", "value": "> 1.5×10^−6"}
    ]}
  ]
}
